How the values were obtained:
[1] = test system: TNF-alpha suppressed t-PA production in HUVECs; experiment: Counter-acting TNF-alpha (0.1 ng/ml) suppression of t-PA in HUVEC; assay type: cell-based, human; details: for concentration completely normalizing TNF-alpha suppressed t-PA production / concentration partly reversing TNF-alpha suppression of t-PA production: TNF-alpha 0.1 ng/ml 48 h, compound last 24 h
Protocol: Human umbilical vein endothelial cells (HUVECs) were prepared and cultured as described in Example 1. Confluent HUVECs were exposed to low concentrations of TNF-alpha (0.1 ng/ml) (Sigma-Aldrich) for 24 h. Thereafter, medium was replaced by fresh EGM-2 containing TNF-alpha and low concentrations of belinostat (10 nM to 300 nM) and incubated for 24 h. After 24 h, cells and conditioned media were harvested. Total RNA was prepared and RNA and secreted protein quantified as in Example 1.
We have previously shown that proinflammatory cytokines e.g. TNF-alpha and IL-1b suppress t-PA production in endothelial cells. We then investigated if VPA could reverse a TNF-alpha suppressed t-PA response. Human umbilical vein endothelial cells (HUVECs) were prepared by collagenase treatment of fresh umbilical cords (Jaffe, E. A., et al. J Clin Invest 52, 2745-2756 (1973)) obtained from the maternity ward of the Sahlgrenska University hospital, Gothenburg, Sweden. Cells were cultured in EGM-2 medium (Lonza, Basel, Switzerland) and all experiments were performed in passage 1 of subcultivation. Confluent HUVECs were pre-treated with 0.1 ng/ml human recombinant TNF-alpha (Sigma-Aldrich) for 24 hours then exposed to optimal concentrations VPA in complete medium. After incubation with the VPA and TNF-alpha for an additional 24 hours, cells and conditioned media were harvested.
Total RNA was prepared using RNeasy Mini RNA kit (Qiagen, Hilden, Germany) and genomic DNA was removed using RNase-free DNase I set (Qiagen). Levels of t-PA mRNA were analyzed with real-time RT-PCR, performed on an Applied Biosystems 7500 Fast Real-Time PCR System using cDNA and Taqman reagents obtained from Applied Biosystems (Foster City, Calif., USA). Hypoxanthine phosphoribosyl transferase (HPRT, Assay number Hs99999909_m1, Applied Biosystems) was used as endogenous internal standard.
Endothelial cells in culture are known to constitutively secrete the majority of synthesized t-PA making conditioned media a suitable source for quantification of t-PA protein. Conditioned medium from cell cultures was collected, centrifuged (10,000×g, 10 min, 4° C.) to remove cell debris, transferred to fresh tubes and stored at −70° C. Concentrations of t-PA antigen in conditioned media were determined using the commercially available TriniLize t-PA antigen ELISA (Trinity Biotech, Bray, Ireland) according to the manufacturer's protocol.

[2] = test system: healthy subjects with an increased risk for atherothrombotic cardiovascular events; experiment: Primary preventive clinical outcome study; assay type: in vivo, human
Protocol: The third outcome study investigates the primary preventive effect of Vorinostat in healthy subjects with an increased risk for atherothrombotic cardiovascular events i.e. cigarette smoking, abnormal blood lipid levels, hypertension, diabetes, abdominal obesity, low-grade inflammation and/or atherosclerosis. Subjects are randomized to double-blind oral treatment with 10 mg Vorinostat or placebo daily. The risk of a primary atherothrombotic event is followed annually. The primary composite efficacy endpoint is mortality, or non-fatal myocardial infarction or ischemic stroke. The study is event-driven to a total of 180 events in the placebo group.
The third outcome study investigates the primary preventive effect of VPA in healthy subjects with an increased risk for atherothrombotic cardiovascular events due to low-grade inflammation. The inflammatory activation is clinically defined as an elevated serum level of high-sensitivity C-reactive protein (hs-CRP) >3 mg/L. Subjects are randomized to double-blind oral treatment with 100 mg valproic acid or placebo twice daily. The risk of a primary atherothrombotic event is followed annually. The primary composite efficacy endpoint is mortality, or non-fatal myocardial infarction or ischemic stroke. The study is event-driven to a total of 180 events in the placebo group. In this population the annual event rate is reduced by 30% from 1.5 to 1%.

[3] = test system: patients with a recent major atherothrombotic cardiovascular event; experiment: Clinical outcome study in high-risk patients for prevention of recurrent events; assay type: in vivo, human; details: for annual absolute event rate lowered to: annual risk estimated approximately 7%
Protocol: The first clinical outcome study is performed in high-risk patients who have experienced a recent major atherothrombotic cardiovascular event (myocardial infarction or ischemic stroke) to investigate the preventive effect of Vorinostat treatment on the risk for recurrent events. The annual risk for a recurrent atherothrombotic event in the investigated population is estimated to approximately 7%. Patients are randomized in a parallel study design to receive double-blind oral treatment with 10 mg Vorinostat or placebo daily, in addition to optimal conventional treatment. The event rate is monitored by Kaplan-Meyer statistics. The primary efficacy endpoint is the composite measure of either mortality, or non-fatal myocardial infarction or ischemic stroke. The study is event-driven to a total of 180 events in the placebo group.
The first clinical outcome study is performed in high-risk patients who have experienced a recent major atherothrombotic cardiovascular event (myocardial infarction or ischemic stroke) to investigate the preventive effect of VPA treatment on the risk for recurrent events. Signs of a low-grade inflammatory condition is an inclusion criterion, defined as an elevated serum level of high-sensitivity C-reactive protein (hs-CRP) >3 mg/L. The annual risk for a recurrent atherothrombotic event in the investigated population is estimated to approximately 7%. Patients are randomized in a parallel study design to receive double-blind oral treatment with 100 mg valproic acid or placebo twice daily, in addition to optimal conventional treatment. The event rate is monitored by Kaplan-Meyer statistics. The primary efficacy endpoint is the composite measure of either mortality, or non-fatal myocardial infarction or ischemic stroke. The study is event-driven to a total of 180 events in the placebo group. […] Thus, this study confirms the clinical efficacy and feasibility of using VPA for secondary prevention of cardiovascular events.

[4] = daily oral dose: Vorinostat 10 mg, Belinostat 65 mg, Givinostat 2 mg, Panobinostat 0.5 mg, PCI-24781 2 mg, JNJ-26481585 0.2 mg, Mocetinostat 2 mg, SB939 0.4 mg, CXD101 10 mg
[5] = doses as for risk reduction (Vorinostat 10 mg, Belinostat 65 mg, Givinostat 2 mg, Panobinostat 0.5 mg, PCI-24781 2 mg, JNJ-26481585 0.2 mg, Mocetinostat 2 mg, SB939 0.4 mg, CXD101 10 mg daily)
[6] = long-term, daily oral dose: Vorinostat 10 mg, Belinostat 65 mg, Givinostat 2 mg, Panobinostat 0.5 mg, PCI-24781 2 mg, JNJ-26481585 0.2 mg, Mocetinostat 2 mg, SB939 0.4 mg, CXD101 10 mg
[7] = HUVEC, present-tense Examples 12-18
[8] = hs-CRP >3 mg/L, 100 mg valproic acid orally twice daily

SMILES | concentration completely normalizing TNF-alpha suppressed t-PA production ([1]; HUVEC) | concentration partly reversing TNF-alpha suppression of t-PA production ([1]; HUVEC) | concentrations needed to off-set the inhibition of TNF-alpha on t-PA expression ([1]; TNF-alpha treated endothelium) | annual event rate with treatment (reduced from 1.5) [2, 4] | reduction of annual event rate [2, 4] | annual absolute event rate lowered to [3, 5] | reduction of risk for recurrent atherothrombotic events, in addition to conventional therapy [3, 6] | concentration completely normalizing TNF-alpha suppressed t-PA production [1, 7] | concentration partly reversing TNF-alpha suppression of t-PA production [1, 7] | concentration achieving complete normalization of TNF-alpha suppressed t-PA mRNA ([1]; HUVEC, TNF-alpha 0.1 ng/ml, VPA additional 24 h) | concentrations needed to reverse the effect of TNF-alpha on t-PA expression ([1]; TNF-suppressed cells) | annual event rate with treatment (reduced from 1.5) [2, 8] | reduction of annual event rate [2, 8] | reduction of risk for recurrent atherothrombotic events, in addition to conventional therapy [3, 8] | annual absolute event rate lowered to [3, 8]
O=C(/C=C/c1cccc(S(=O)(=O)Nc2ccccc2)c1)NO [Belinostat] | 200 nM | 50 nM | 0.05 to 0.2 µM | 1% | 30% | approximately 5% | approximately 30% | – | – | – | – | – | – | – | –
Cc1nn(C)cc1CN1CCC(c2ccc(C(=O)Nc3ccccc3N)cc2)CC1 [CXD101] | – | – | – | 1% | 30% | approximately 5% | approximately 30% | 300 nM | 10 nM | – | – | – | – | – | –
CCN(CC)Cc1ccc2cc(COC(=O)Nc3ccc(C(=O)NO)cc3)ccc2c1.Cl [Givinostat] | – | – | – | 1% | 30% | approximately 5% | approximately 30% | 100 nM | 30 nM | – | – | – | – | – | –
Cn1cc(CNCC2CCN(c3ncc(C(=O)NO)cn3)CC2)c2ccccc21 [JNJ-26481585, N-hydroxy-2-(4-((((1-methyl-1H-indol-3-yl)methyl)amino)methyl)piperidin-1-yl)pyrimidine-5-carboxamide] | – | – | – | 1% | 30% | approximately 5% | approximately 30% | 5 nM | 1 nM | – | – | – | – | – | –
Nc1ccccc1NC(=O)c1ccc(CNc2nccc(-c3cccnc3)n2)cc1 [Mocetinostat] | – | – | – | 1% | 30% | approximately 5% | approximately 30% | 300 nM | 10 nM | – | – | – | – | – | –
CN(C)Cc1c(C(=O)NCCOc2ccc(C(=O)NO)cc2)oc2ccccc12 [PCI-24781, 3-(dimethylaminomethyl)-N-[2-[4-(hydroxycarbamoyl)phenoxy]ethyl]-1-benzofuran-2-carboxamide] | – | – | – | 1% | 30% | approximately 5% | approximately 30% | 200 nM | 10 nM | – | – | – | – | – | –
CCCC(CCC)C(=O)O [VPA, valproic acid] | – | – | – | – | – | – | – | – | – | 0.35 mM | below 0.35 mM | 1% | 30% | approximately 30% | approximately 5%
O=C(CCCCCCC(=O)Nc1ccccc1)NO [Vorinostat] | 300 nM | 50 nM | – | 1% | 30% | approximately 5% | approximately 30% | – | – | – | – | – | – | – | –

— patent US20230094176A1, “COMPOUNDS AND METHODS FOR IMPROVING IMPAIRED ENDOGENOUS FIBRINOLYSIS USING HISTONE DEACETYLASE INHIBITORS” (Cereno Scientific AB, priority 2011, published 2023)
